Test results from ChEMBL document CHEMBL1156829 (Proc Natl Acad Sci U S A, 2008).

Tests used:
[1] = system: Plasmodium falciparum; assay: NOVARTIS: Inhibition of Plasmodium falciparum W2 (drug-resistant) proliferation in erythrocyte-based infection assay; assay type: functional, organism-based; conditions: Plasmodium falciparum, W2; read-out: EC50
[2] = system: Plasmodium falciparum; assay: NOVARTIS: Inhibition of Plasmodium falciparum 3D7 (drug-susceptible) proliferation in erythrocyte-based infection assay; assay type: functional, organism-based; conditions: Plasmodium falciparum, 3D7
[3] = NOVARTIS: Cytotoxicity against human hepatocellular carcinoma cell line (Huh7); assay type: toxicity, cell-based, Huh-7; conditions: Huh7 cells (hepatocellular carcinoma cell line)

| SMILES | EC50 [1] | EC50 [2] | CC50 [3] |
| --- | --- | --- | --- |
| CCOC(=O)c1nc2nc(C)cc(O)n2n1 | > 0.94 µM | > 0.739 µM | > 10 µM |
| CO[C@H]1[C@@H](C)[C@@H]([C@H](C)C2O[C@@]3(CC[C@@](C)([C@H]4CC[C@@](C)([C@@H]5O[C@@H]([C@H]6O[C@](C)(O)[C@H](C)C[C@@H]6C)C[C@@H]5C)O4)O3)C[C@H](O)[C@@H]2C)O[C@@](O)([C@H](C)C(=O)O)[C@H]1C (stereo partly drawn) | 0.938 µM | 1.14 µM | > 10 µM |
| NC(=O)Cc1ccccc1 | 9.5 µM | > 12.5 µM | > 100 µM |
| Cc1cccc(-n2c(-c3ccccc3)nc3ccc(-c4ccc5nc(-c6ccccc6)n(-c6cccc(C)c6)c(=O)c5c4)cc3c2=O)c1 | > 0.939 µM | > 1.2 µM | > 10 µM |
| O=C(c1ccccc1)c1cc(Cl)ccc1NCCBr | > 0.955 µM | > 1.25 µM | > 10 µM |
| Cc1c(Cl)cccc1NCC(=O)NN=C1CCCC1 | > 0.948 µM | > 1.25 µM | > 10 µM |
| CCCCNC(=O)N(CCCC(C)Nc1cc(OC)cc2cccnc12)Cc1ccc(OC)c(OC)c1 (stereo not drawn) | 0.422 µM | 1.27 µM | > 4.47 µM |
| CCOC(=O)c1cnn(-c2ccnc3cc(Cl)ccc23)c1CNC(C)c1cccs1 (stereo not drawn) | > 0.944 µM | > 1.56 µM | > 10 µM |
| CCCCCOc1ccc(/C=C2/N=C(c3ccccc3)OC2=O)cc1 | > 0.944 µM | > 0.116 µM | > 10 µM |
| COCCNC(=O)c1ccc2c(=O)n(Cc3ccc4c(c3)OCO4)c(=S)[nH]c2c1 | 0.943 µM | > 0.533 µM | > 10 µM |
| CC(Cc1ccccc1)NCCCCCNC(C)Cc1ccccc1 (stereo not drawn) | 0.503 µM | 0.238 µM | 5.32 µM |
| Cc1ccc([N+](=O)[O-])cc1-c1ccc(/C=C2/SC(=S)N(CC(=O)O)C2=O)o1 | > 0.94 µM | > 1.25 µM | > 10 µM |
| COc1cccc(-c2ccc(O)c(CNCc3ccccc3OC)c2)n1 | 0.939 µM | 1.09 µM | > 10 µM |
| O=C1C2CN(C(=O)Nc3ccccc3)C(c3ccc(Cl)cc3)C2C(=O)N1c1ccccc1 (stereo not drawn) | > 0.958 µM | > 1.25 µM | > 10 µM |
| O=C(Nc1ccccc1)/C(=C\c1ccncc1)NC(=O)c1ccccc1 | > 0.955 µM | > 1.25 µM | > 10 µM |
| CC(C)Nc1nc(-c2cccnc2)nc2ccccc12 | > 0.955 µM | > 0.829 µM | > 10 µM |
| COc1ccc(OC)c(-c2ccc(O)c(CNC3CCCCC3)c2)c1 | 0.953 µM | 0.842 µM | > 10 µM |
| COc1ccc(CNC(=O)c2ccc3c(c2)N=C(/C=C/c2ccccc2)N(CCN2CCOCC2)C3)cc1 | > 0.949 µM | 0.79 µM | > 10 µM |
| CCN(CC)CCN(Cc1cc2cc(OC)ccc2[nH]c1=O)C(=S)Nc1cccc(Cl)c1 | 2.19 µM | 1.19 µM | 23.1 µM |
| N#C/C(=C\C=C\c1ccc([N+](=O)[O-])o1)c1nc2ccccc2[nH]1 | 0.946 µM | 1.05 µM | > 10 µM |
| CC(=O)Nc1ccc(C(=O)N2CCC(Oc3cccc(CN(C)Cc4cccc5ccccc45)c3)CC2)cc1 | 0.945 µM | > 1.25 µM | > 10 µM |
| COc1cc(C=NNC(=O)c2ccco2)ccc1OCc1ccc([N+](=O)[O-])cc1 | > 0.941 µM | > 1.25 µM | > 10 µM |
| C=CCOc1cccc(/C=C2/NC(C)=C(C(=O)OCC)C2=O)c1 | > 0.933 µM | > 1.04 µM | > 10 µM |
| CC1CCC(Nc2ccnc3cc(Cl)ccc23)CC1 (stereo not drawn) | 0.933 µM | 0.843 µM | > 10 µM |
| COc1ccc(OC)c(-c2ccc(O)c(CNC3CCCCCCC3)c2)c1 | 0.952 µM | 0.767 µM | > 10 µM |
| O=c1c2c3c(sc2ncn1Cc1cccc(Cl)c1)CC(N1CCCCC1)CC3 (stereo not drawn) | 2.64 µM | 2.95 µM | 27.8 µM |

| SMILES | EC50 [1] | EC50 [2] | CC50 [3] |
| --- | --- | --- | --- |
| COC(=O)c1c(-c2c(F)cccc2Cl)noc1C=CNc1ccccc1 | 6.98 µM | 11.4 µM | 73.7 µM |
| CC1CC(=Cc2ccncc2)C(=O)C(=Cc2ccncc2)C1 (stereo not drawn) | 0.736 µM | 1.63 µM | 7.77 µM |
| COc1ccc(N2C(=O)/C(=C3/C(=O)Nc4ccc(F)cc43)SC2=S)c(OC)c1 | 0.947 µM | > 0.926 µM | > 10 µM |
| O=C(COC(c1ccccc1)c1cccnc1)NCCNC(=O)OCc1ccccc1 (stereo not drawn) | 0.941 µM | 0.967 µM | > 10 µM |
| CCOc1ccc(CN(C(=O)C(C)(C)CCl)C(C)CCCN(CC)CC)cc1 (stereo not drawn) | 0.941 µM | > 0.878 µM | > 10 µM |
| Cc1ccc(NC=C2C(=O)NC(=S)NC2=O)cc1 | > 9.49 µM | > 12.5 µM | > 100 µM |
| COCC(=O)NC(c1ccccc1)c1cc(Cl)c2cccnc2c1O (stereo not drawn) | 0.95 µM | 1.05 µM | > 10 µM |
| Nc1nc(N)nc(C(c2ccccc2)c2ccccc2)n1 | > 1.25 µM | 1.09 µM | > 13.2 µM |
| COc1ccc(/C=C2\N=C(c3ccc(Cl)cc3)N(c3cc(Cl)ccc3C)C2=O)cc1OC | > 0.949 µM | > 1.25 µM | > 10 µM |
| Cc1cccc(NC(=O)/C(C#N)=C/c2ccc(C)o2)c1 | > 0.934 µM | > 1.25 µM | > 10 µM |
| CCCOc1ncnc2c1sc1nc3c(cc12)COC(C)(C)C3 | > 0.936 µM | > 0.967 µM | > 10 µM |
| CCCCN(C(=O)Nc1ccc(OCC)cc1)C(C)c1nc2ccccc2c(=O)n1-c1ccc(F)c(Cl)c1 (stereo not drawn) | 0.935 µM | 1.01 µM | > 10 µM |
| Cn1c(=O)c2c(ncn2CC(O)CN=C2CCCCN2)n(C)c1=O (stereo not drawn) | > 0.933 µM | > 1.25 µM | > 10 µM |
| COc1ccc2c(c1)sc1nc(C)c(C)c(C)[n+]12 | > 0.952 µM | 0.688 µM | > 10 µM |
| Cc1ccc(Nc2cc(C)nc(NCc3ccccc3)n2)c(C)c1 | 0.619 µM | 0.306 µM | 6.51 µM |
| N#C/C(=C\c1ccc(Sc2ccccc2)o1)c1nc2ccccc2[nH]1 | 0.947 µM | 1.51 µM | > 10 µM |
| CCn1c(SCCCCNC(=O)c2cc([N+](=O)[O-])cc([N+](=O)[O-])c2)nc(-c2ccccc2)c1-c1ccccc1 | 0.612 µM | 0.724 µM | 6.52 µM |
| O=C(NN=Cc1cc2ccccc2cc1O)c1cccnc1 | 0.946 µM | 0.871 µM | > 10 µM |
| Fc1ccc(CSc2ccc3nnc(-c4cccnc4)n3n2)cc1 | > 0.937 µM | > 1.25 µM | > 10 µM |
| S=C(NN=Cc1ccccn1)NC1CC2CC1C1C=CCC21 (stereo not drawn) | 0.109 µM | 0.123 µM | > 1.14 µM |
| c1cncc(-c2cc(NCCCn3ccnc3)nc(-c3ccncc3)n2)c1 | 0.956 µM | 1.09 µM | > 10 µM |
| O=C(Cn1c(=O)oc2cc(S(=O)(=O)NCc3ccccc3)ccc21)NC1CCCCC1 | > 0.955 µM | > 1.25 µM | > 10 µM |
| O=C(Nc1cc(C(F)(F)F)ccc1OCc1ccccc1)c1ccccc1O | 0.949 µM | > 1.25 µM | > 10 µM |
| CCOC(=O)Cn1cnc2c(nnn2Cc2ccc(F)cc2)c1=O | 0.16 µM | 0.38 µM | > 1.7 µM |
| Cc1cc(C)c2nc(SCC(=O)Nc3ccc4c(c3)OCCO4)cc(C)c2c1 | > 0.942 µM | > 1.25 µM | > 10 µM |
